Patent US20100215580A1, “Compositions and methods for enhancing transport through mucus” (The Johns Hopkins University, priority 2006, published 2010)
Entries after “also recorded” stand apart in the source; their conditions may differ.

Experiment: Multiple particle tracking of particles in CF sputum with mucolytic pretreatment
Assay type: in vitro ADME, human
Conditions: for effect on overall ensemble averaged transport rates of nanoparticles: CF mucus, 30 mins post-treatment, 200 nm particles (rhDNase), 100 nm particles (0.4 mM NAC)
Description: Human respiratory sputum was expectorated from male and female CF patients (ages 18-35). CF sputum samples from multiple patients were pooled, freeze-dried, and reconstituted in sputum buffer by stirring at 4° C. to attain a large volume of homogeneous CF sputum. The volume of sputum buffer added to reconstituted CF sputum samples was determined by mass measurements (the reconstituted CF sputum had the equivalent mass of the fresh CF sputum samples).
[…] Mucus samples (200 μL) were centrifuged and a portion of the supernatant (40 μL) was replaced with mucolytic solution or PBS to maintain the initial concentration of mucus solids and eliminate any dilution effects. The displacements of particles in the no treatment (PBS) control were identical to that of particles embedded in an unprocessed mucus sample, which was not centrifuged. The tracking resolution, evaluated by tracking 500 nm polystyrene probes in glycerol, was […].
The mechanism of particle transport over short and long time scales was classified based on the concept of relative change (RC) of effective diffusivity (Deff). In brief, RC values of particles at short and long time scales were calculated by dividing the Deff of a particle at a probed time scale by the Deff at an earlier reference time scale. By calculating RC values for two time regimes (i.e., short and long time scales), one can obtain the transport mode that describes the particle transport properties over different length and temporal scales. RCshort was defined at τref=0.2 s and τprobe=1 s, whereas RClong was found at reference τref=1 s and τprobe=2s. An RC standard curve, which plots the 95% distribution range of Deff for purely Brownian particles over time scale, was generated based on Monte Carlo simulations and confirmed by tracking polystyrene nanoparticles in glycerol (data not shown). The transport modes of particles that display RC values below the […] range for either short or long time scales were classified as hindered, and the rest were classified as diffusive. Immobile particles are defined as those that display an average MSD smaller than the 10-nm resolution at a time scale of 1 s.

Molecule	enhancement of diffusive fraction of 500 nm PEG-PS compared to no treatment control (500 nm PEG-PS particles, CF mucus pretreated with NAC)	increase of transport rates (ensemble geometric mean square displacement) compared to no treatment control (PBS) (500 nm PEG-PS particles, pretreatment of CF mucus with neutralized NAC)	effect on overall ensemble averaged transport rates of nanoparticles (listed as NAC)	effect on overall ensemble averaged transport rates of nanoparticles
CC(=O)N[C@@H](CS)C(=O)O [N-acetyl-L-cysteine]	3 fold	10.7 fold	significantly improved; also recorded: increased significantly	–
rhDNase: mucus degrading agent which hydrolyzes linear DNA, used clinically to increase mucus clearance (protein, UniProt P24855 23-282, looked up) Deoxyribonuclease-1: LKIAAFNIQTFGETKMSNATLVSYIVQILSRYDIALVQEVRDSHLTAVGKLLDNLNQDAPDTYHYVVSEPLGRNSYKERYLFVYRPDQVSAVDSYYYDDGCEPCGNDTFNREPAIVRFFSRFTEVREFAIVPLHAAPGDAVAEIDALYDVYLDVQEKWGLEDVMLMGDFNAGCSYVRPSQWSSIRLWTSPTFQWLIPDSADTTATPTHCAYDRIVVAGMLLRGAVVPDSALPFNFQAAYGLSDQLAQAISDHYPVEVMLK	–	–	–	reduced the overall ensemble averaged transport rates; also recorded: did not correlate to improved particle transport
